Assay results taken from patent US20130123358A1, “Metabolic Benefits to Butyrate as a Chronic Diet Supplement” (priority 2009, published 2013).

Tests used:
[1] = system: C57BL/6J mice on high fat diet; experiment: Systemic insulin sensitivity (fasting glucose, insulin, ITT, HOMA-IR) in HFD mice; type: in vivo, mouse; conditions: butyrate 5% w/w in HFD
Method: ITT was conducted by intra-peritoneal (i.p.) injection of insulin (I9278, Sigma) at 0.75 U/kg body weight in mice after a 4 hour fast as previously described (15). Blood glucose was monitored in the tail vein blood using the FreeStyle blood glucose monitoring system (TheraSense, Phoenix, Ariz.).
To test this possibility, systemic insulin sensitivity was analyzed using fasting glucose, insulin, and insulin tolerance.
Tail vein blood was used for the glucose assay after 16 hr fasting during the period of HFD feeding. […] The insulin was determined at 16 weeks on HFD in fasting condition with Lincoplex kit (#MADPK-71k-03, Linco Research Inc., St. Charles, Mo.). […] ITT was done at 12 weeks on HFD (at 16 weeks of age). In FIGS. 2A-2C, data are presented as means±SE (N=9). *P<0.05, **P<0.001 by Student's t test. […] After an overnight fast, blood glucose and insulin were measured and used to determine insulin sensitivity through HOMA IR (IR=fasting insulin […] X fasting glucose mg/dL÷405). Values are the means±SE (N=8 mice). ** P<0.001. […] The gastrocnemius muscle was isolated after insulin (0.75 U/kg) injection in mice for 30 min and used to prepare the whole cell lysate for an immunoblot. The mice on HFD for 13 weeks were used in the signaling assay. FIG. 2F illustrates the degree of the blot signal in the panel 2E, by quantifying the signal and normalizing with protein loading. **P<0.001 (n=2).

[2] = system: C57BL/6J mice on high fat diet; experiment: Hyperinsulinemic-euglycemic clamp; type: in vivo, mouse; conditions: 5% butyrate in HFD 4 weeks
Method: Hyperinsulinemic-euglycemic clamps were performed at the Penn State Mouse Metabolic Phenotyping Center. The clamps were conducted in C57BL/6 mice at 12 weeks of age after 4 weeks on HFD with or without butyrate supplement. Following overnight fast (˜15 hour), a 2-hour hyperinsulinemic-euglycemic clamp was conducted in awake mice with a primed (150 mU/kg body weight) and continuous infusion of human regular insulin (Humulin; Eli Lilly, Indianapolis, Ind.) at a rate of 2.5 mU/kg/min to raise plasma insulin within a physiological range (Kim et al., 2004). Blood samples (20 μl) were collected at 20 min intervals for the immediate measurement of plasma glucose concentration, and 20% glucose was infused at variable rates to maintain glucose at basal concentrations. Basal and insulin-stimulated whole body glucose turnover were estimated with a continuous infusion of [3-^3H]glucose (PerkinElmer, Boston, Mass.) for 2 hours prior to the clamps (0.05 μCi/min) and throughout the clamps (0.1 μCi/min), respectively. To estimate insulin-stimulated glucose uptake in individual tissues, 2-deoxy-D-[1-^14C]glucose (2-[^14C]DG) was administered as a bolus (10 μCi) at 75 min after the start of clamps. Blood samples were taken before, during, and at the end of clamps for the measurement of plasma [^3H]glucose, ^3H2O, 2-[^14C]DG concentrations, and/or insulin concentrations. At the end of the clamps, mice were euthanized, and tissues were taken for biochemical and molecular analysis.
Glucose concentrations during clamps were analyzed using […] plasma by a glucose oxidase method on a Beckman Glucose Analyzer 2 (Beckman, Fullerton, Calif.). Plasma insulin concentrations were measured by ELISA using kits from Alpco Diagnostics (Salem, N.H.). Plasma concentrations of [3-^3H]glucose, 2-[^14C]DG, and ^3H2O were determined following deproteinization of plasma samples as previously described. The radioactivity of ^3H in tissue glycogen was determined by digesting tissue samples in KOH and precipitating glycogen with ethanol. For the determination of tissue 2-[^14C]DG-6-P content, tissue samples were homogenized, and the supernatants were subjected to an ion-exchange column to separate 2-[^14C]DG-6-P from 2-[^14C]DG. Rates of basal hepatic glucose production (HGP) and insulin-stimulated whole body glucose turnover were determined as the ratio of the [^3H]glucose infusion rate to the specific activity of plasma glucose at the end of the basal period and during the final 30 min of clamp, respectively (Kim et al., 2004). Insulin-stimulated rate of HGP during clamp was determined by subtracting the glucose infusion rate from whole body glucose turnover. Insulin-stimulated glucose uptake in individual tissues was assessed by determining the tissue content of 2-[^14C]DG-6-P and plasma 2-[^14C]DG profile.
Hyperinsulinemic-euglycemic clamps were performed at the Penn State Mouse Metabolic Phenotyping Center. The clamps were conducted in C57BL/6J mice at 12 weeks of age after 4 weeks on HFD with or without a 5% butyrate supplement. Following overnight fast (˜15 hour), a 2-hour hyperinsulinemic-euglycemic clamp was conducted in awake mice with a primed (150 mU/kg body weight) and continuous infusion of human regular insulin (Humulin; Eli Lilly, Indianapolis, Ind.) at a rate of 2.5 mU/kg/min to raise plasma insulin within a physiological range (38). […]

CCCC(=O)[O-].[Na+] [sodium butyrate]
insulin tolerance test (ITT) response ([1]; 12 weeks, insulin 0.75 U/kg i.p., 30, 60, 120 and 180 min): much better response to insulin at all time points | fasting insulin, lower than control ([1]; 16 weeks on HFD): 50% | fasting glucose (HFD-induced increase) ([1]; after 10 weeks, 16 hr fasting): this increase was not observed | HOMA-IR, lower than control ([1]; overnight fast): 60% | insulin sensitivity in the liver (hepatic glucose production) ([2]; clamp): also improved | insulin-stimulated glucose uptake in brown adipose tissue ([2]; clamp): improved | insulin-stimulated glucose uptake in white adipose tissue ([2]; clamp): improved | insulin-stimulated glucose uptake in muscle ([2]; clamp, gastrocnemius): improved | glucose infusion rate, increase ([2]; last 40 min of clamps): 40%
